Test results from US8569380B2, “Oligomer-tricyclic conjugates” (Nektar Therapeutics, priority 2007, dated 2013).
Values joined by “and” are separate entries in the source; they are usually repeats but may differ in a detail not shown here. Equal entries are not always repeated. Where two headings read alike, the source gives them in different places.

Tests used:
[1] = target: T1, recombinant human M4 muscarinic acetylcholine receptor (Homo sapiens, UniProt P08173); experiment: Muscarinic receptor binding assay, M4; conditions: 3H-N-Methylscopolamine 0.8 nM, CHO membranes
T1 construct: expressed in transfected cells; host or cells: CHO cells (membranes)
T1 sequence (P08173 1-479): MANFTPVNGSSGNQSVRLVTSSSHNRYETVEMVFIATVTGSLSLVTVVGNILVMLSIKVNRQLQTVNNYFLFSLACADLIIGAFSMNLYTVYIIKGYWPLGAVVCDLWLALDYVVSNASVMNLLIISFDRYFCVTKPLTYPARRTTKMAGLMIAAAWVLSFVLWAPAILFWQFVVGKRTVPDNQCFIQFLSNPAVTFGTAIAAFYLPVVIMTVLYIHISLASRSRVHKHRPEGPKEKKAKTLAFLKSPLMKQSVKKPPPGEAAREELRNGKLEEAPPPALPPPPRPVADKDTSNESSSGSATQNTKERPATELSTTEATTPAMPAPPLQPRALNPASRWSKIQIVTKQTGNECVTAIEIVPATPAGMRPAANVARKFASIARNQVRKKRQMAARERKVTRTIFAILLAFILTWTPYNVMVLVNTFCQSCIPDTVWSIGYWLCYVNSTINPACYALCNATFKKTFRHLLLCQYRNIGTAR
Description: (§1) Competition binding experiments were conducted by incubating membranes with a fixed concentration of radioligand in the presence of variable concentrations of test compounds. ^3H—N-Methylscopolamine at 0.8 nM was used as the radioligand for all receptor subtypes. Incubations were carried out for 2 hours at 25° C. in buffer containing 50 mM Tris HCl, 10 mM MgCl2 and 1 mM EDTA. Following incubations, the membranes were washed the bound radioactivity was measured. […] Ki was obtained using the Cheng Prusoff correction using Kd values that were experimental determined previously under these assay conditions.

[2] = target: T2, recombinant human M5 muscarinic acetylcholine receptor (Homo sapiens, UniProt P08912); experiment: Muscarinic receptor binding assay, M5; conditions: 3H-N-Methylscopolamine 0.8 nM, CHO membranes
T2 construct: expressed in transfected cells; host or cells: CHO cells (membranes)
T2 sequence (P08912 1-532): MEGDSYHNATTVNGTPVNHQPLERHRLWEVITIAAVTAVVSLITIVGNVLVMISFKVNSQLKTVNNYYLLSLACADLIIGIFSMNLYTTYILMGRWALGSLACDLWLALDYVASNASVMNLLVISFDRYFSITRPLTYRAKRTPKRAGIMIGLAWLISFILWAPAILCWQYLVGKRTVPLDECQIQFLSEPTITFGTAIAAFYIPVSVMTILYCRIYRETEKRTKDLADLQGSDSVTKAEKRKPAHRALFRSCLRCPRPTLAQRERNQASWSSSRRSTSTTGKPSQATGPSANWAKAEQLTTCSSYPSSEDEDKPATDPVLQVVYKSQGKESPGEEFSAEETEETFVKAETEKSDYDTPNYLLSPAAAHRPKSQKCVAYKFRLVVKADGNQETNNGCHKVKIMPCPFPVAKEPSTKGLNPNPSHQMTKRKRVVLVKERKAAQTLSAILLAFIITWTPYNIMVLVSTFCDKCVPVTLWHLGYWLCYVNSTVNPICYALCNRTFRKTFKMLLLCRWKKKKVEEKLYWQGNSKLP
Description: as §1

[3] = test system: sodium channels (neuronal INa) in isolated rat dorsal root ganglion cells; experiment: Sodium channel assay, whole-cell patch clamp, neuronal INa; type: cell-based; conditions: for IC50: approximate, >50% inhibition not obtained at highest concentration
[4] = target: sodium channels (cardiac INa) in isolated human atrial myocytes (Homo sapiens, UniProt Q14524); experiment: Sodium channel assay, whole-cell patch clamp, cardiac INa; type: cell-based; conditions: for IC50: approximate, >50% inhibition not obtained at highest concentration
sodium channels (cardiac INa) in isolated human atrial myocytes, sequence (Q14524 whole entry): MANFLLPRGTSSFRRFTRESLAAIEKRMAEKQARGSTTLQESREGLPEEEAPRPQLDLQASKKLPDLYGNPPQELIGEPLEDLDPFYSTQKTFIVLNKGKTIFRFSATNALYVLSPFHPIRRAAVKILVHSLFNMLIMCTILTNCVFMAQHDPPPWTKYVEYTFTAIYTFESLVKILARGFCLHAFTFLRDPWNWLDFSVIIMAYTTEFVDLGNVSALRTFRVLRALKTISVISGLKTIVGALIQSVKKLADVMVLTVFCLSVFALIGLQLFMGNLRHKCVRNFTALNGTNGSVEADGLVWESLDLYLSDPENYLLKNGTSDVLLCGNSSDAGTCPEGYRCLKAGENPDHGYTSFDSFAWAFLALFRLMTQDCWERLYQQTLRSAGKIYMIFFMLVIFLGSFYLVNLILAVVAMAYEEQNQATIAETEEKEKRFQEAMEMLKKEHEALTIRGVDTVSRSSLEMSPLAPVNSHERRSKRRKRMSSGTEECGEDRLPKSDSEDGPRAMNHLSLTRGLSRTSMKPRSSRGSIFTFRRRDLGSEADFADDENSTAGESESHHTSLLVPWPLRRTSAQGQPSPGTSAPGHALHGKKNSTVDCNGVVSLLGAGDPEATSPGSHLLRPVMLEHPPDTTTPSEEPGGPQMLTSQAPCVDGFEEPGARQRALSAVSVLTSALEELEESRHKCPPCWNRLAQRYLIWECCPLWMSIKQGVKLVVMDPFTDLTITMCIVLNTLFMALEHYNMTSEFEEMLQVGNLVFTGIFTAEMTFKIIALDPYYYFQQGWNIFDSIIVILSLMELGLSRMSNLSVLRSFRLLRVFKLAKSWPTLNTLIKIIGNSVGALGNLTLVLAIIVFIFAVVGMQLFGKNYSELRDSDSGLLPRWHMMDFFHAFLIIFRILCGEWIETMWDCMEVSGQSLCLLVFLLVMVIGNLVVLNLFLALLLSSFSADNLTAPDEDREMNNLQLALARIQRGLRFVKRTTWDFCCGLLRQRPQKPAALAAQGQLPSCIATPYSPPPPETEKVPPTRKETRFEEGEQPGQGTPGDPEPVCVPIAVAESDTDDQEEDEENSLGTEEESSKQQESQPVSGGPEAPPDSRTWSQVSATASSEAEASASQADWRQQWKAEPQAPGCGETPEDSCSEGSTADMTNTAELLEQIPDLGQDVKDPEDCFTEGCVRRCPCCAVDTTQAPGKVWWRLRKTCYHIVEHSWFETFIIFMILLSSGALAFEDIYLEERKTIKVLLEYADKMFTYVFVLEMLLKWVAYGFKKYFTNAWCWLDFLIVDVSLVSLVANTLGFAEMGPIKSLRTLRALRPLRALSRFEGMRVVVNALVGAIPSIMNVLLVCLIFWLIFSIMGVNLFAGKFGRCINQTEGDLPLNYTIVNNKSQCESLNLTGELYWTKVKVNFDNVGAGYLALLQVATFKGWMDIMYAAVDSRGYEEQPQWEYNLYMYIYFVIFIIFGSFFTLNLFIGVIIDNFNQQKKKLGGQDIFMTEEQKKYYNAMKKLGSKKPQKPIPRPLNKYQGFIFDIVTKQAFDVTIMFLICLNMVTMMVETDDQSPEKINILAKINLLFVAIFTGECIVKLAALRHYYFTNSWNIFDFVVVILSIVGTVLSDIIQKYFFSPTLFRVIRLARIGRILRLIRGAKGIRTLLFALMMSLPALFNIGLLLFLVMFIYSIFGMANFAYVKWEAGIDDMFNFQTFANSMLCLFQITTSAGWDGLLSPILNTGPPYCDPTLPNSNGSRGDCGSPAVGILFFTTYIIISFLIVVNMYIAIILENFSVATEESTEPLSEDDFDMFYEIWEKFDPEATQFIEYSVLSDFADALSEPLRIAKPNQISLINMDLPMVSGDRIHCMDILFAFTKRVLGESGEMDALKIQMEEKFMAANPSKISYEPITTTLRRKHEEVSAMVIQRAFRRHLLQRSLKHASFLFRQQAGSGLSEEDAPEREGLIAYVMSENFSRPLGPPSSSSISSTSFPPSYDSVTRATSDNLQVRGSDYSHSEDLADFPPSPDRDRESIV

[5] = target: T3, recombinant human H2 histamine receptor (Homo sapiens, UniProt P25021); experiment: Histamine receptor radioligand binding assay, H2; conditions: for H2 Receptor Fold-change over parent: Ki relative to amitriptyline; for Ki: [125I]-Aminopotentidine 0.1 nM, CHO membranes
T3 construct: expressed in transfected cells; host or cells: CHO cells (membranes)
T3 sequence (P25021 whole entry): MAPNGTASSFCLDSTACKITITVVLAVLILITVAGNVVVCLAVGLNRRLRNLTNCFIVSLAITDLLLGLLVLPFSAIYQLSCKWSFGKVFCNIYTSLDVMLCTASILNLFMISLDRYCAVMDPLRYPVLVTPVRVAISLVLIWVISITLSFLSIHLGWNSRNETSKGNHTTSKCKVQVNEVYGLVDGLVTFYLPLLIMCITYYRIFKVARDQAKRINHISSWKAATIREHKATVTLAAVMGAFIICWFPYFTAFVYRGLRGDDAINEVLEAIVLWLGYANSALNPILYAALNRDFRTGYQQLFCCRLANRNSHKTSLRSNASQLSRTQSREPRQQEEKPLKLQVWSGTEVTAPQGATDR
Description: (§2) Competition binding experiments were conducted by incubating membranes with a fixed concentration of radioligand in the presence of variable concentrations of test compounds. The radioligands used were specific for each receptor subtype and the assay conditions are described in Table 2. Following incubations, the membranes were washed and the bound radioactivity was measured. Non-specific binding was measured in the presence of excess unlabelled ligand; this value was subtracted from the total binding yielding the specific binding at each test compound concentration.
(§3) Ki was obtained using the Cheng Prusoff correction using experimental Kd values that were previously determined under the same assay conditions.

[6] = target: T4, recombinant human H1 histamine receptor (Homo sapiens, UniProt P35367); experiment: Histamine receptor radioligand binding assay, H1; conditions: for H1:H2 Selectivity: H2 Ki versus H1 Ki; for H1 Receptor Fold-change over parent: Ki relative to amitriptyline; for Ki: [3H]-Pyrilamine 1.2 nM, CHO membranes
T4 construct: expressed in transfected cells; host or cells: CHO cells (membranes)
T4 sequence (P35367 whole entry): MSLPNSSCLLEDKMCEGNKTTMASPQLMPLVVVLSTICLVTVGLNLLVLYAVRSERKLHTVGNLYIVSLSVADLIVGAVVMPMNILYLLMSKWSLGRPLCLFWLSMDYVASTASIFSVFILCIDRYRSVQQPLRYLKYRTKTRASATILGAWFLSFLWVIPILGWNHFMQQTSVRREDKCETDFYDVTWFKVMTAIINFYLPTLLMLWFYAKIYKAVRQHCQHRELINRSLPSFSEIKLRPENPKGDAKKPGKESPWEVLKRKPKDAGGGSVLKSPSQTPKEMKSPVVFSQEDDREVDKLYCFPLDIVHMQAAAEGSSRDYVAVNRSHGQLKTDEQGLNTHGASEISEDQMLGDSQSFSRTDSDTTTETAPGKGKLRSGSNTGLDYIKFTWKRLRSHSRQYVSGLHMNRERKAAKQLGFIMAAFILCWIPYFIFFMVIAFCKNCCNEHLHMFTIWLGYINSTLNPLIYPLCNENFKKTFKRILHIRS
Description: as §2, §3

[7] = pKa and LogP determinations; type: physicochemical
[8] = target: T5, noradrenalin transporters (rat forebrain membranes) (Rattus norvegicus, UniProt Q9WTR4); experiment: Noradrenalin transporter binding assay; conditions: for Ki: [3H]-nisoxetine 1.0 nM, rat forebrain membranes, read-out: Ki, binding affinity to noradrenalin transporters
T5 construct: membranes prepared from rat forebrain which express noradrenalin transporters; from tissue; host or cells: rat forebrain membranes
T5 sequence (Q9WTR4 1-597): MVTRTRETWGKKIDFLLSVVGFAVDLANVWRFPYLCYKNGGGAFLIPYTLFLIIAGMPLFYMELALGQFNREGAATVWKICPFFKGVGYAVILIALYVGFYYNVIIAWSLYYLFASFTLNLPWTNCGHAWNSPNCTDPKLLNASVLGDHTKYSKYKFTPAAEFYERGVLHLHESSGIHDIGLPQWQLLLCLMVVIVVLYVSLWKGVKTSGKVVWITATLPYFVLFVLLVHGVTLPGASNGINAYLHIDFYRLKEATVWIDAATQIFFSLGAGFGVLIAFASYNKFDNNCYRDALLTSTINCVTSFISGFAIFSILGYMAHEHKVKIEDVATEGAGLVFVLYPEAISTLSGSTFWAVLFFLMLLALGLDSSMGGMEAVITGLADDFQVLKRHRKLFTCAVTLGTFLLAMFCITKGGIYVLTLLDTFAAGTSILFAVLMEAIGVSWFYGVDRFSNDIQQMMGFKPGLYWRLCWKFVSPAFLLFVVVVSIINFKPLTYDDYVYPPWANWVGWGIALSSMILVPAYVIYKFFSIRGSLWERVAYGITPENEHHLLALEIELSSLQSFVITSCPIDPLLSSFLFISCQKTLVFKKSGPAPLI
Description: Competition binding experiments were conducted by incubating membranes with 1.0 nM of radioligand, [^3H]-nisoxetine, in the presence of variable concentrations (0.1 nM to 3 μM and 3 nM to 100 μM for parent and PEG conjugates, respectively) of test compounds. The reaction was carried out in 50 mM Tris-HCl (pH 7.4), 300 mM NaCl, 5 mM KCl at 0-4° C. for 4 hours. Following incubations, the membranes were washed, and the bound radioactivity was measured.
Ki was obtained using the Cheng Prusoff correction using experimental Kd values that were previously determined under these assay conditions.

[9] = target: T6, recombinant human M1 muscarinic acetylcholine receptor (Homo sapiens, UniProt P11229); experiment: Muscarinic receptor binding assay, M1; conditions: 3H-N-Methylscopolamine 0.8 nM, CHO membranes
T6 construct: expressed in transfected cells; host or cells: CHO cells (membranes)
T6 sequence (P11229 1-460): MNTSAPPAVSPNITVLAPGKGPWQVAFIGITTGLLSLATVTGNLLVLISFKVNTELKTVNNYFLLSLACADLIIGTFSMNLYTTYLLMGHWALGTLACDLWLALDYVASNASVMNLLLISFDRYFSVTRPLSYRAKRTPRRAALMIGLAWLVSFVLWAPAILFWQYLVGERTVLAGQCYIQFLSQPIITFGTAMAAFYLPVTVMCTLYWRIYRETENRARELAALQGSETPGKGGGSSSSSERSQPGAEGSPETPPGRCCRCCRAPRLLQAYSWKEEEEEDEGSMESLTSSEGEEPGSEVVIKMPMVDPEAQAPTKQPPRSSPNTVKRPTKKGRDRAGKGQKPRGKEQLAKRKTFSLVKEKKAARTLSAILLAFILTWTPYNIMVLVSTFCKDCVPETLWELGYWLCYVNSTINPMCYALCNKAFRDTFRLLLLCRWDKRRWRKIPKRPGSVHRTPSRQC
Description: as §1

[10] = target: T7, recombinant human M2 muscarinic acetylcholine receptor (Homo sapiens, UniProt P08172); experiment: Muscarinic receptor binding assay, M2; conditions: 3H-N-Methylscopolamine 0.8 nM, CHO membranes
T7 construct: expressed in transfected cells; host or cells: CHO cells (membranes)
T7 sequence (P08172 1-466): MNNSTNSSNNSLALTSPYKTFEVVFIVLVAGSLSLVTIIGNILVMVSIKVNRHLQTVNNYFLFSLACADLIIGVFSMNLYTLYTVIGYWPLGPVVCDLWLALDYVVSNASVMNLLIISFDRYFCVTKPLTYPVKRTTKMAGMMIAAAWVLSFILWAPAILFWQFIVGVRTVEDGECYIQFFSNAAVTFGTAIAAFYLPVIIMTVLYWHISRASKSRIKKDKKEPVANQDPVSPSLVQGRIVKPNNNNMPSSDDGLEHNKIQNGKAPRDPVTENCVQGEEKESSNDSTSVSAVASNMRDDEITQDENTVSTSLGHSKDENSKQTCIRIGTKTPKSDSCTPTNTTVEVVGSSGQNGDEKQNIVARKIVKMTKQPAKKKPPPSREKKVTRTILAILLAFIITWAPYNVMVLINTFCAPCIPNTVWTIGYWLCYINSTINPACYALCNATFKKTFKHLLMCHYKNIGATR
Description: as §1

[11] = pacing 0.1 Hz, read-out: Neuronal INa IC50 at 0.1 Hz
[12] = pacing 3 Hz, read-out: Neuronal INa IC50 at 3 Hz
[13] = pacing 0.1 Hz, read-out: Cardiac INa IC50 at 0.1 Hz
[14] = pacing 3 Hz, read-out: Cardiac INa IC50 at 3 Hz

SMILES: CN(C)CCC=C1c2ccccc2CCc2ccccc21 [Amitriptyline]
- Ki [1]: 0.0239 µM
- Ki [2]: 0.017 µM

SMILES: NC(=O)N1c2ccccc2C=Cc2ccccc21 [Carbamazepine, reference compound]
- IC50 [3, 11]: 102 µM
- IC50 [3, 12]: 114 µM
- Cardiac INa Fold Change Relative to Parent, 0.1 Hz ([4]; pacing 0.1 Hz, relative to carbamazepine): 1.0
- IC50 [4, 13]: 160 µM
- Cardiac INa Fold Change Relative to Parent, 3 Hz ([4]; pacing 3 Hz, relative to carbamazepine): 1.0
- IC50 [4, 14]: 145 µM

SMILES: NC1=N[C@H](O)[C@H]2[C@H]3O[C@]4(O)O[C@@H]([C@@H](O)[C@@]2(N1)[C@@H]4O)[C@]3(O)CO [TTX, tetrodotoxin, reference compound]
- reduction of INa [3]: 93.2% and 96.8%
- reduction of INa [4]: 47.2% and 56.8%

SMILES: COCCOCCOCCN(C)CCC=C1c2ccccc2CCc2ccccc21 [mPEG3-N-Amitriptyline]
- H2 Receptor Fold-change over parent [5]: 14
- Ki [5]: 3.01 µM
- H1:H2 Selectivity [6]: 1663
- H1 Receptor Fold-change over parent [6]: 6
- Ki [6]: 0.00181 µM

SMILES: COCCOCCOCCNC(=O)N1c2ccccc2C=Cc2ccccc21 [mPEG3-N-Carbamazepine]
- IC50 [3, 11]: 142 µM
- IC50 [3, 12]: 578 µM
- Cardiac INa Fold Change Relative to Parent, 0.1 Hz [4]: 2.8
- Cardiac INa Fold Change Relative to Parent, 3 Hz [4]: 1.5
- IC50 [4, 13]: 460 µM
- IC50 [4, 14]: 214 µM

SMILES: COCCOCCOCCN(C)CCCN1c2ccccc2CCc2ccccc21 [mPEG3-N-Desipramine]
- pKa [7]: 8.47

SMILES: COCCOCCOCCNCCCN1c2ccccc2CCc2ccccc21 [mPEG3-NH-Desipramine, N-mPEG3-3-(10,11-dihydro-dibenzo[b,f]azepin-5-yl)-propylamine]
- Fold Change Relative to Parent [8]: 3336
- Ki [8]: 6.65 µM
- logP [7]: 3.14
- pKa [7]: 8.96

SMILES: COCCOCCOCCOCCOCCN(C)CCC=C1c2ccccc2CCc2ccccc21 [mPEG5-N-Amitriptyline]
- H2 Receptor Fold-change over parent [5]: 63
- Ki [5]: 13.1 µM
- H1:H2 Selectivity [6]: 3670
- H1 Receptor Fold-change over parent [6]: 11
- Ki [6]: 0.00357 µM

SMILES: COCCOCCOCCOCCOCCNC(=O)N1c2ccccc2C=Cc2ccccc21 [mPEG5-N-Carbamazepine]
- Cardiac INa Fold Change Relative to Parent, 0.1 Hz [4]: 0.4
- Cardiac INa Fold Change Relative to Parent, 3 Hz [4]: 0.4

SMILES: COCCOCCOCCOCCOCCN(C)CCCN1c2ccccc2CCc2ccccc21 [mPEG5-N-Desipramine]
- pKa [7]: 8.55

SMILES: COCCOCCOCCOCCOCCOCCN(C)CCC=C1c2ccccc2CCc2ccccc21 [mPEG6-N-Amitriptyline]
- Ki [9]: 0.869 µM
- H1 Receptor Fold-change over parent [6]: 19
- Ki [6]: 0.00613 µM
- Ki [10]: 1.17 µM

SMILES: COCCOCCOCCOCCOCCOCCOCCN(C)CCC=C1c2ccccc2CCc2ccccc21 [mPEG7-N-Amitriptyline]
- H1 Receptor Fold-change over parent [6]: 23
- Ki [6]: 0.00744 µM
- Ki [10]: 1.14 µM

SMILES: COCCOCCOCCOCCOCCOCCOCCNC(=O)N1c2ccccc2C=Cc2ccccc21 [mPEG7-N-Carbamazepine]
- IC50 [3, 11]: 144 µM
- IC50 [3, 12]: 163 µM
- Cardiac INa Fold Change Relative to Parent, 0.1 Hz [4]: 2.4
- Cardiac INa Fold Change Relative to Parent, 3 Hz [4]: 1.2
- IC50 [4, 13]: 380 µM
- IC50 [4, 14]: 169 µM

SMILES: COCCOCCOCCOCCOCCOCCOCCNCCCN1c2ccccc2CCc2ccccc21 [mPEG7-NH-Desipramine, N-mPEG7-3-(10,11-dihydro-dibenzo[b,f]azepin-5-yl)-propylamine]
- Fold Change Relative to Parent [8]: 2972
- Ki [8]: 5.92 µM
- logP [7]: 2.5
- pKa [7]: 8.94

SMILES: COCCOCCOCCOCCOCCOCCOCCOCCN(C)CCCN1c2ccccc2CCc2ccccc21 [mPEG8-N-Desipramine]
- pKa [7]: 8.66
